Assay results from US20150272939A1, “Identification of Small Molecule Inhibitors of Jumonji AT-Rich Interactive Domain 1A (JARID1A) and 1B (JARID1B) Histone Demethylase” (Yale University, priority 2012, published 2015).
Where two headings read alike, the source gives them in different places.

Experiments:
[1] = AlphaScreen counterscreen against bio-H3K4me2 peptide in the absence of enzyme (artifact signal); details: for Artifact Signal (percent): effect of the compound when incubated with bio-H3K4me2 peptide (counterscreen, no enzyme); for Artifact signal: effect of the compound when it is incubated with bio-H3K4me2 peptide: counterscreen, no enzyme;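 for all read-outs here: counterscreen run without enzyme against bio-H3K4me2 peptide to remove false positive hits from the JARID1 demethylase AlphaScreen screen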
JARID1B = biological target: T1, JARID1B (Homo sapiens, UniProt Q9UGL1); assay: FLAG-JARID1B histone demethylase assay with AlphaScreen detection (HTS and dose response); format: biochemical; details: for Assay − Artifact Signal (percent): assay signal minus artifact signal; for inhibition at 20 µM: read-out: Inhibitory effect (percent); for Assay Signal (percent): effect of compound in JARID1B AlphaScreen assay;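 for Assay Signal (percent): compound tested at 20 µM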;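 for Assay − Artifact Signal (percent): compound tested at 20 µM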;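 for all read-outs here: FLAG-tagged JARID1B at 4 nM acting on a biotinylated H3K4me3 peptide, demethylation read by AlphaScreen luminescence, with hits checked against bio-H3K4me2 without enzyme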
T1 construct: The FLAG tagged full length JARID1B enzyme was expressed in Sf21 insect cells using FLAG-JARID1B baculoviruses; FLAG (N); made in house; host or cells: Sf21 insect cells (baculovirus)

[2] = high-throughput screen, compound 20 μM, standard demethylase conditions (10 μM α-KG, 50 μM Fe (II))
[3] = validation of HTS actives, total signal before subtraction of artifact signal

T1 sequence (Q9UGL1 whole entry): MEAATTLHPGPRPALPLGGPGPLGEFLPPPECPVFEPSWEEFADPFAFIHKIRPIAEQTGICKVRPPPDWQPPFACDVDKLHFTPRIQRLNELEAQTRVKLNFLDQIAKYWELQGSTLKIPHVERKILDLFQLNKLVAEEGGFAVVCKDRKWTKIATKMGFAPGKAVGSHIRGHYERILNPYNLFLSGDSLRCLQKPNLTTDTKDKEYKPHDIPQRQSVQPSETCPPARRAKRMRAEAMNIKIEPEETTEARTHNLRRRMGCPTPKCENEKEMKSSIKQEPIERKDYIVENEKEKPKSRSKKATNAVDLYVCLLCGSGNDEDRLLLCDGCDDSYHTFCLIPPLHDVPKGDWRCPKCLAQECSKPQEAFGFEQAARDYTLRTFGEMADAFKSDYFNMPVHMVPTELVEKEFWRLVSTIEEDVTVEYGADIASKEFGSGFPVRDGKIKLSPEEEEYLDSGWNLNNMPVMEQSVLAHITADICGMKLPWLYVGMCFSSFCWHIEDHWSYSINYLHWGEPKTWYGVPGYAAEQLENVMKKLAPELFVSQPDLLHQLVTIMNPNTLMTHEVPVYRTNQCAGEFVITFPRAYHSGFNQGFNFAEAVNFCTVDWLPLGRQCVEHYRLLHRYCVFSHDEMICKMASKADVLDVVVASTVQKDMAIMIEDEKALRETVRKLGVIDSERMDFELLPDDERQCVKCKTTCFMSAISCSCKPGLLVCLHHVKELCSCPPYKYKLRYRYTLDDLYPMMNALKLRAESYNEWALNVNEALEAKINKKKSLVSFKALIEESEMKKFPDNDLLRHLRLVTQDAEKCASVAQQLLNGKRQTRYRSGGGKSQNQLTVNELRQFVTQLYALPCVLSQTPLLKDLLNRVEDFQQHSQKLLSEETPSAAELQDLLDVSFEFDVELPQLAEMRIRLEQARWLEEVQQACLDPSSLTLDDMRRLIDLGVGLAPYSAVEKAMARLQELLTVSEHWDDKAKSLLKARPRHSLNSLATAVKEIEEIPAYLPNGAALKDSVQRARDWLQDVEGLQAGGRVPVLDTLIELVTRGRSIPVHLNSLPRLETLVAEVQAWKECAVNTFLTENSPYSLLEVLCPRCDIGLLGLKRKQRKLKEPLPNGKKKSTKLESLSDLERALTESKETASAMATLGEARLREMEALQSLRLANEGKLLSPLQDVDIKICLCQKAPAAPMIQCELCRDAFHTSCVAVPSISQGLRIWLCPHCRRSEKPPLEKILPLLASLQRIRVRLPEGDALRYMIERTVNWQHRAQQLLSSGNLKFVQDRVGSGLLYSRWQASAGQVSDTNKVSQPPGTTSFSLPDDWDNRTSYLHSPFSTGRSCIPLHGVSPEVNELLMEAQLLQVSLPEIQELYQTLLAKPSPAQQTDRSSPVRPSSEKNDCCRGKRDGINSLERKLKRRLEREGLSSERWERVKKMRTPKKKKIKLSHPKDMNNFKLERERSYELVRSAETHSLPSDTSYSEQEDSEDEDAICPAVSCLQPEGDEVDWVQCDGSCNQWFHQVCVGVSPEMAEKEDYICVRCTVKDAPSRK

Row | Compound | Artifact Signal (percent) [1] [%] | Assay − Artifact Signal (percent) (JARID1B) [%] | inhibition at 20 µM (JARID1B; [2]) [%] | Assay Signal (percent) (JARID1B; validation of HTS actives) [%] | Artifact signal: effect of the compound when it is incubated with bio-H3K4me2 peptide [1] | Validation result of HTS active: effect of the compound in the JARID1B AlphaScreen demethylase assay (JARID1B; [3]) | Inhibitory effect (percent) (JARID1B) [%] | Validation effect minus artifact signal (JARID1B) | Validation result of HTS active: effect of the compound in the JARID1B AlphaScreen demethylase assay (JARID1B) | Inhibitory effect (percent) (JARID1B; [2]) [%]
1 | Cc1ccccc1C(=O)NCc1nnc(S)n1C [YU147024] | −5.84 | 35.27 | 31.6 | 29.44 |  |  |  |  |  | 
2 | N=C(NCCCCCCNC(=N)NC(=N)Nc1ccc(Cl)cc1)NC(=N)Nc1ccc(Cl)cc1 [YU033734, CHLORHEXIDINE, reference compound] |  |  | 41 |  | 1.97 | −1.12 |  |  |  | 
3 | N#CC(=Cc1ccc(O)c(O)c1)C(N)=S (single isomer, unassigned) [YU154834, TYRPHOSTIN 47, reference compound] | 18.48 | 21.75 | 46.5 | 40.23 |  |  |  |  |  | 
4 | COc1cccc2c1C(=O)c1c(O)c3c(c(O)c1C2=O)C[C@@](O)(C(C)=O)C[C@@H]3O[C@H]1C[C@H](N)[C@H](O)[C@H](C)O1 [YU155488, DAUNORUBICIN, reference compound] | 3.31 | 45.32 |  | 48.63 |  |  |  |  |  | 
5 | O=c1c(O)c(-c2ccc(O)c(O)c2)oc2c(O[C@@H]3O[C@H](CO)[C@@H](O)[C@H](O)[C@H]3O)c(O)cc(O)c12 [YU153353, GOSSYPIN, reference compound] | 61.80 | 37.81 |  | 99.61 |  |  |  |  |  | 
6 | Cc1cc(N)c2ccccc2[n+]1CCCCCCCCCC[n+]1c(C)cc(N)c2ccccc21 [YU034372, DEQUALINIUM CHLORIDE, reference compound] | 0.57 | 32.23 | 42.1 | 32.80 |  |  |  |  |  | 
7 | Cn1c(C(C#N)=Cc2ccncc2)nc2ccccc21 (single isomer, unassigned) [YU146842] | −6.95 | 104.16 | 90.8 | 97.21 |  |  |  |  |  | 
8 | O=C(NC1CCCCC1)c1ccc(NC(=O)c2ccccc2O)cc1 [YU154737] | 4.58 | 23.65 | 45 | 28.23 |  |  |  |  |  | 
9 | Cc1cc(C(=O)Nc2c(C)n(C)n(-c3ccccc3)c2=O)c(C)o1 [YU153128] | 4.15 | 8.37 | 101 | 12.52 |  |  |  |  |  | 
10 | CC1(C)C(=O)C2(CCCCC2)C(=O)OC1c1ccc(O)cc1 (stereo not shown) [YU150447] |  |  | 34.3 |  | 0.80 | 4.56 |  |  |  | 
11 | Cc1c2c(=O)n(-c3nc4ccccc4s3)[nH]c2cc(=O)n1Cc1ccc(C(=O)O)cc1 [YU172089] | 11.16 | 11.36 | 92.3 | 22.52 |  |  |  |  |  | 
12 | COc1ccc(CNn2c(C)nnc2S)cc1 [YU146438] | 8.17 | 42.15 | 36.9 | 50.33 |  |  |  |  |  | 
13 | O=c1c2c(-c3ccc(Cl)cc3)csc2nc2n1CCC2 [YU150472] |  |  | 32.1 |  | −2.52 | 4.75 |  |  |  | 
14 | CC[C@]1(O)C[C@H]2CN(CCc3c([nH]c4ccccc34)[C@@](C(=O)OC)(c3cc4c(cc3OC)N(C=O)[C@H]3[C@@](O)(C(=O)OC)[C@H](OC(C)=O)[C@]5(CC)C=CCN6CC[C@]43[C@@H]65)C2)C1.O=S(=O)(O)O [YU221071, VINCRISTINE SULFATE, reference compound] |  |  |  |  | −1.27 |  | 44.20 | 1.86 | 0.59 | 
15 | CN(C)c1cccc2c(C=O)ccc(N(C)C)c12 [YU145980] | 7.56 | 28.03 | 32.3 | 35.60 |  |  |  |  |  | 
16 | Cc1[nH]c2nc(C(F)(F)F)nn2c(=O)c1C [YU172199] | −4.00 | 42.72 | 62.4 | 38.73 |  |  |  |  |  | 
17 | O=C(O)CSc1nc2cc(F)c(N3CCOCC3)cc2[nH]1 [YU151409] |  |  | 45.1 |  | −0.23 | 4.03 |  |  |  | 
18 | COc1ccccc1OCc1nnc(S)n1C [YU146471] | −1.64 | 47.93 | 36.4 | 46.29 |  |  |  |  |  | 
19 | CC(C)=CCc1c2c(c3occ(-c4ccc(O)c(O)c4)c(=O)c3c1O)C=CC(C)(C)O2 [YU155407, POMIFERIN, reference compound] |  |  |  |  | 10.52 | 16.14 |  |  |  | 91.09
20 | COCCCNCCOc1cc(C(C)C)ccc1C [YU147245] | 1.25 | 12.07 | 30.9 | 13.31 |  |  |  |  |  | 
21 | c1ccc2c(NCc3ccncc3)cccc2c1 [YU145649] | 2.10 | 87.87 | 87.7 | 89.97 |  |  |  |  |  | 
22 | N#CC(=Cc1ccc(-c2ccccc2)o1)C(N)=S [YU146534] | 4.53 | 10.89 | 32.8 | 15.42 |  |  |  |  |  | 
23 | Cc1ccc(-n2sc3ccccc3c2=O)cc1 [YU146026] | 2.88 | 85.63 | 87.8 | 88.51 |  |  |  |  |  | 
24 | O=C(O)c1cc2cc(Cc3ccccc3Cl)ccc2oc1=O [YU151859] |  |  | 84.4 |  | 5.15 | 9.33 |  |  |  | 
25 | Cc1noc2c1C(c1ccc(O)c(O)c1)C1=C(CCCC1=O)N2 (stereo not shown) [YU183529] | 4.16 | 36.06 |  | 40.22 |  |  |  |  |  | 
26 | Cc1cccc(C(=O)NNC(=S)NC(=O)CC(C)C)c1 [YU149514] |  |  | 48.4 |  | −8.22 | −2.24 |  |  |  | 
27 | CC(=O)[C@]1(O)Cc2c(O)c3c(c(O)c2[C@@H](O[C@H]2C[C@H](N)[C@H](O)[C@H](C)O2)C1)C(=O)c1ccccc1C3=O.Cl (stereo in doubt) [YU040321, IDARUBICIN HCl, reference compound] |  |  | 92.3 |  | −9.53 | −11.32 |  |  |  | 
28 | O=C(Oc1cc(O)cc2c1C[C@@H](OC(=O)c1cc(O)c(O)c(O)c1)[C@@H](c1cc(O)c(O)c(O)c1)O2)c1cc(O)c(O)c(O)c1 [YU155091, EPIGALLOCATECHIN 3,5-DIGALLATE, reference compound] |  |  | 92.2 |  | −3.13 | −0.05 |  |  |  | 
